Results on 22 molecules are retold here after patent publication US20070254863A1 (priority 2006, published 2007).

Read-outs that look alike come from different tables or passages of the source.

For assay [1], the target named is T1, hamster SUR1 (Cricetus cricetus, UniProt Q09427).
T1 construct: expressed in transfected cells; host or cells: COS-1 cells, transient (pcDNA vector)
Nature of the assay: In vitro binding affinity to rodent KATP channels: SUR1 ([3H]glibenclamide displacement, COS cell membranes). The protocol:
1. In Vitro Binding Affinity of the Test Compounds to Rodent KATP Channels
Competitive binding experiments were performed to characterize the affinity of the test compounds for the binding sites for sulfonylureas and KATP channel openers (KCOS) on hamster SUR1. To assess the affinity for the sulfonylurea site, membranes from COS-cells transiently expressing hamster SUR1 were incubated in the presence of [^3H]glibenclamide with increasing concentrations of test compounds. […] For each test compound four displacement curves were measured (+/−MgATP from the human and hamster isoform). Per curve 9-15 distinct concentrations were tested covering the relevant range. All measurements were repeated at least 5 times in independent experiments.
(§1) [^3H]glibenclamide (specific activity 51 Ci mmol^−1) was obtained from NEN (Dreieich, Germany). Where needed, stock solutions were prepared in dimethylsulfoxide with a final solvent concentration in the media below 1%.
(§2) SUR- or Kir6.x isoforms were used either subcloned in the pcDNA (hamster SUR1, mouse Kir6.2) or pCMV vector (rat SUR2A, SUR2B).
(§3) For transfection, the cells were incubated 4 hours in a Tris-buffered salt solution containing DNA (5-10 μg/ml) plus DEAE-dextran (1 mg/ml), 2 min in HEPES-buffered salt solution plus dimethylsulfoxide (10%) and 4 hours in DMEM-HG plus chloroquine (100 μM). Cells were then returned to DMEM-HG plus 10% FCS. […] For binding experiments, resuspended membranes (final protein concentration 5-50 μg/ml) were incubated in “Tris-buffer” (50 mM, pH 7.4) containing either [^3H]glibenclamide (final concentration 0.3 nM or 3 nM and nonspecific binding defined by 100 nM or 1 μM glibenclamide for SUR1 or SUR2Y1205S-isoforms, respectively) or [^3H]P1075 (final concentration 3 nM, nonspecific binding defined by 100 μM pinacidil) and increasing concentrations of the test compounds. The free Mg^2+ concentration were kept close to 0.7 mM. […] Incubations were carried out for 1 h at room temperature and were terminated by rapid filtration through Whatman GF/B filters.
(§4) The inhibition constant (Ki value) of the test substances was calculated from the respective IC50 value, and was stated as the negative logarithmic value thereof (pKi).

The target in assay [2] is rat SUR2A (Rattus norvegicus, UniProt Q63563). Nature of the assay: In vitro binding affinity to rodent KATP channels: SUR2A ([3H]P1075 / [3H]glibenclamide displacement, COS cell membranes). The protocol: Therefore, two strategies can be used to detect binding to the sulfonylurea site on SUR2A.
Chain of rat SUR2A (Q63563 whole entry, canonical isoform): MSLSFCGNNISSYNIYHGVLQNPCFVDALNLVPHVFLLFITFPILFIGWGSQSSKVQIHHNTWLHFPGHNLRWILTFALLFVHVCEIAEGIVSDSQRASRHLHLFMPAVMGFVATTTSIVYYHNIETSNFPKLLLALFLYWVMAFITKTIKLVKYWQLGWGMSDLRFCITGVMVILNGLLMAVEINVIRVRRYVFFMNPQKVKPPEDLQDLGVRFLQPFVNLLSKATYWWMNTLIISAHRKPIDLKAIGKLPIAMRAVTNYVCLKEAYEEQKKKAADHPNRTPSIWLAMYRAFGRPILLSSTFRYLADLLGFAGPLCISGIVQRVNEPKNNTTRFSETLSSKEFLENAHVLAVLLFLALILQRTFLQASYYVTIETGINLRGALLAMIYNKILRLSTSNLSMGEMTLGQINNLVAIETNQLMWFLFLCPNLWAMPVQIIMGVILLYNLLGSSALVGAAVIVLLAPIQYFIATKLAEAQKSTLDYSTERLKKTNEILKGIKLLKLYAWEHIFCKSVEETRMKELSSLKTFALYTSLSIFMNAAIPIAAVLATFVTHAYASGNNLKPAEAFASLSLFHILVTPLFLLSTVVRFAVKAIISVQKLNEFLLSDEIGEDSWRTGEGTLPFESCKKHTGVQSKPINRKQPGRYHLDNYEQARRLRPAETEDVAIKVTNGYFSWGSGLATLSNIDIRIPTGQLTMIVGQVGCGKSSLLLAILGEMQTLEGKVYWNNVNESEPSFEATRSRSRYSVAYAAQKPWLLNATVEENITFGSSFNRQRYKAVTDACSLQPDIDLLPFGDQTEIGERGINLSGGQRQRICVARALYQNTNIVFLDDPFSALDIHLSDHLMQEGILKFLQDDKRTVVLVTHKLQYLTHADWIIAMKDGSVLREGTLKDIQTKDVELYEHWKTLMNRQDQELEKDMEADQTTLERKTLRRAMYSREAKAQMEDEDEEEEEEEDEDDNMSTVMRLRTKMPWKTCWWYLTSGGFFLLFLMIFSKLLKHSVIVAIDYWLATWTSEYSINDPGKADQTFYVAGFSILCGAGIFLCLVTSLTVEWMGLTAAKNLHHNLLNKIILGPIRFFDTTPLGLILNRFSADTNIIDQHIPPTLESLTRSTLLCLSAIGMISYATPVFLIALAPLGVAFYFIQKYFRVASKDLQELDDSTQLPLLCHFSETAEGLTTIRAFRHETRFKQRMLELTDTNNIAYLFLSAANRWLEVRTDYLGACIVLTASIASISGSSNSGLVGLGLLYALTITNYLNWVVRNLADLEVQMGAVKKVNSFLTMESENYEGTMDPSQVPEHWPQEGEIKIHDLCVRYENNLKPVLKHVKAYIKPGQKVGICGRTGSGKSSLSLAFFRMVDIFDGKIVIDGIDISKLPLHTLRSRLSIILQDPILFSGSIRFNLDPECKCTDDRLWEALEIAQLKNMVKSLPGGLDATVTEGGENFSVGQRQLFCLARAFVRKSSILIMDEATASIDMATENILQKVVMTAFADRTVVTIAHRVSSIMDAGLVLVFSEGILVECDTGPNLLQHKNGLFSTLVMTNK
Membranes from COS-cells transiently expressing rat SUR2A were incubated in the presence of the radioligands with increasing concentrations of test compounds as described above. […] For each test compound four displacement curves were measured (displacement of [^3H]P1075 from the rat isoform of the wild type receptor and displacement of [^3H]glibenclamide from the rat isoform of SUR2AY1205S). Per curve 9-15 distinct concentrations were tested covering the relevant range. All measurements were repeated at least 5 times in independent experiments.
as §1, §2, §3, §4

Assay [3] has as its target human cannabinoid CB2 receptor (Homo sapiens, UniProt P34972). Put plainly: biochemical. Format: binding. The protocol: 3. In Vitro Binding Affinity of the Test Compounds to CB2 Receptors
After incubation of a freshly prepared cell membrane preparation with the [^3H]-ligand, with or without the addition of the compounds described herein, separation of bound and free ligand is performed by filtration over glass-fiber filters. Radioactivity on the filter is measured by liquid scintillation counting.

[4] abbreviates: hamster SUR1 in COS cell membranes, read-out: Affinity to SUR 1 (converted).
Setting [5] is: cloned human CB2 receptor expressed in CHO cells, read-out: Affinity to CB2 (converted).
Setting [6] is: rat SUR2A in COS cell membranes.

T1 sequence (Q09427 whole entry): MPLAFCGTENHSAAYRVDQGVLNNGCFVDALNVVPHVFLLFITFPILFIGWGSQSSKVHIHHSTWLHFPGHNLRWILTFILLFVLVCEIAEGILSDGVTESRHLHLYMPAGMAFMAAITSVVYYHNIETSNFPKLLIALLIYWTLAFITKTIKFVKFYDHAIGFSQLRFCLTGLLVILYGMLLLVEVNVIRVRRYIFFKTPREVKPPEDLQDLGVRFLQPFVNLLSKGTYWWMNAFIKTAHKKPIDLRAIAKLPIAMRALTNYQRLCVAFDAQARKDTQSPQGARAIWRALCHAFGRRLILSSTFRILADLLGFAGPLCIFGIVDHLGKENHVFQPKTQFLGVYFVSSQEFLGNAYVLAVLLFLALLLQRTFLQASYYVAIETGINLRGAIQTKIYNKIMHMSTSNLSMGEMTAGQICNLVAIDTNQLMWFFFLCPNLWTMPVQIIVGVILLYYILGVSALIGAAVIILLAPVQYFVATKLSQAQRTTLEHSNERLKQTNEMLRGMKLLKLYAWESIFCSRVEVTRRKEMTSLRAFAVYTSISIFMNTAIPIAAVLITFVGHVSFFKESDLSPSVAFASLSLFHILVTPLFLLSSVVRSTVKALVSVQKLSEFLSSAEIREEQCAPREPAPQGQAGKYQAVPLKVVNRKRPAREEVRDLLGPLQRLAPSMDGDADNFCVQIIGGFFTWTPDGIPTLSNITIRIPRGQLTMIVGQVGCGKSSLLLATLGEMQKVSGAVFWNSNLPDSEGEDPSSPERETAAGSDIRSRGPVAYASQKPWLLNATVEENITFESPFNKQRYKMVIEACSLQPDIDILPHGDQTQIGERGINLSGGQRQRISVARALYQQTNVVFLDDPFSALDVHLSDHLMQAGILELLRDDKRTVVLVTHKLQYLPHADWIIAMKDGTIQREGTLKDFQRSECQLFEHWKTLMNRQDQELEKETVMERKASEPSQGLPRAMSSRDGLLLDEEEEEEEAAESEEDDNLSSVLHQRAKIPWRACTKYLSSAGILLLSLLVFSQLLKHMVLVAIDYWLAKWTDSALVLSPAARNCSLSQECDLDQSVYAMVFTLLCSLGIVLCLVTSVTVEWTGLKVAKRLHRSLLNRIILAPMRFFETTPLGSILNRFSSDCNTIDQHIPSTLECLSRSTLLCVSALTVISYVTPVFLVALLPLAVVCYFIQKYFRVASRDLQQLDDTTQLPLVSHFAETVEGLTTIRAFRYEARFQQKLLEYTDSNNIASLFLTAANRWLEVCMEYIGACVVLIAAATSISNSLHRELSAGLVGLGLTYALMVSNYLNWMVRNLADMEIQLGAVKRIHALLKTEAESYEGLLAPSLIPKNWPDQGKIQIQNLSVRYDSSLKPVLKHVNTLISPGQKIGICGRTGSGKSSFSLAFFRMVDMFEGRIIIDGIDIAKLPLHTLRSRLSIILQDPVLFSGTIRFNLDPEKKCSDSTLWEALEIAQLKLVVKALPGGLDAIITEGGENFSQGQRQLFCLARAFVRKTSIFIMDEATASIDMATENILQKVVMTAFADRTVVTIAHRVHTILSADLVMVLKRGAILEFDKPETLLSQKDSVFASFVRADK
Chain of human cannabinoid CB2 receptor (P34972 whole entry): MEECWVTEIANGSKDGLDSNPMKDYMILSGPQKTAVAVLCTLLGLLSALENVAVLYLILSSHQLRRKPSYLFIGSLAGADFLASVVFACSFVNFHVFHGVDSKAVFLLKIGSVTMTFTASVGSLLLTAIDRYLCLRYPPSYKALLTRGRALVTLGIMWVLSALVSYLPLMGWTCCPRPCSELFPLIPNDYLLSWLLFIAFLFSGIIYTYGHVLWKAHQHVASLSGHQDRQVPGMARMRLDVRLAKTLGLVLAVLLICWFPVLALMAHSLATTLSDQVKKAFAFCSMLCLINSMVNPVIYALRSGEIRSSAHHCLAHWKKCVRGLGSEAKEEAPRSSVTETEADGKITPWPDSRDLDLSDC

By pKi is commonly meant the negative decadic logarithm of the Ki, by convention in mol/L. Regarding `N/C(=N\S(=O)(=O)c1ccc(Cl)cc1)N1C[C@@H](c2ccccc2)C(c2ccc(Cl)cc2)=N1` (stereo in doubt) [N-{Amino-[3-(4-chloro-phenyl)-4-phenyl-4,5-dihydro-pyrazol-1-yl]-methylene}-4-chloro-benzenesulfonamide], the Ki in assay [1] (setting [4]) is 0.794 µM; in assay [3], 0.158 µM. Moreover, the negative-log Ki (pKi) in assay [2] is reported as 5.4.
Turning to `CCc1c(C(=O)NC2CCCCC2)nc(-c2ccc(Cl)cc2Cl)n1-c1ccc(Br)cc1` [1-(4-Bromo-phenyl)-2-(2,4-dichloro-phenyl)-5-ethyl-1H-imidazole-4-carboxylic acid cyclohexylamide], the Ki in assay [1] (setting [4]) is 100 µM; in assay [3] (setting [5]), 0.2 µM. For the same molecule, the negative logarithm of the Ki (pKi) in assay [2] was 5.1.
The like results for `O=C(NN1CCCCC1)c1cn(-c2ccc(Cl)cc2)c(-c2ccc(Cl)cc2Cl)n1` [1-(4-Chloro-phenyl)-2-(2,4-dichloro-phenyl)-1H-imidazole-4-carboxylic acid piperidin-1-ylamide] were, in that order, 31.6 µM, 0.631 µM and 5.3.
Regarding `CCc1c(C(=O)NN2CCCCC2)nc(-c2ccc(Cl)cc2Cl)n1-c1ccc(Cl)cc1` [1-(4-Chloro-phenyl)-2-(2,4-dichloro-phenyl)-5-ethyl-1H-imidazol-4-carboxylic acid piperidin-1-ylamide], the Ki in assay [1] (setting [4]) was 5.01 µM; in assay [3], 0.501 µM. In assay [2], this molecule came in with a pKi of 5.5.
Take `O=C(NN1CCCCC1)c1nc(-c2ccc(Cl)cc2Cl)n(-c2ccc(Cl)cc2)c1CF` [1-(4-Chloro-phenyl)-2-(2,4-dichloro-phenyl)-5-fluoromethyl-1H-imidazole-4-carboxylic acid piperidin-1-ylamide]: the Ki was 6.31 µM in assay [1] (setting [4]) and 0.794 µM in assay [3] (setting [5]). Also, the negative-log Ki (pKi) in assay [2] came out at 5.5.
Taken in the same sequence, the figures for `O=C(NN1CCCCC1)c1nc(-c2ccc(Cl)cc2Cl)n(-c2ccc(Cl)cc2)c1CO` [1-(4-Chloro-phenyl)-2-(2,4-dichloro-phenyl)-5-hydroxymethyl-1H-imidazole-4-carboxylic acid piperidin-1-ylamide] were 100 µM, 0.631 µM and 4.7.
On to `Cc1c(C(=O)NN2CCCCCC2)nc(-c2ccc(Cl)cc2Cl)n1-c1ccc(Cl)cc1` [1-(4-Chloro-phenyl)-2-(2,4-dichloro-phenyl)-5-methyl-1H-imidazole-4-carboxylic acid azepan-1-ylamide], for which the Ki in assay [1] (setting [4]) is 6.31 µM; in assay [3] (setting [5]), 0.0251 µM. Moreover, in assay [2], the pKi came out at 5.7.
`CSc1c(C(=O)NC2CCCCC2)nc(-c2ccc(Cl)cc2Cl)n1-c1ccc(Cl)cc1` [1-(4-Chloro-phenyl)-2-(2,4-dichloro-phenyl)-5-methylsulfanyl-1H-imidazole-4-carboxylic acid cyclohexylamide]: the Ki in assay [1] (setting [4]) was 0.501 µM. In assay [2] (setting [6]), the negative-log Ki (pKi) was found to be 5.8. Also, in assay [3], the “Affinity to CB2” value was determined as 6.6.
For `CSc1c(C(=O)NN2CCCCC2)nc(-c2ccc(Cl)cc2Cl)n1-c1ccc(Cl)cc1` [1-(4-Chloro-phenyl)-2-(2,4-dichloro-phenyl)-5-methylsulfanyl-1H-imidazole-4-carboxylic acid piperidin-1-ylamide], the Ki is 7.94 µM in assay [1] (setting [4]) and 1 µM in assay [3] (setting [5]). The molecule also displayed a pKi in assay [2] of 5.6.
Take `CCc1c(C(=O)NC2CCCCC2)nc(-c2ncccc2C)n1-c1ccc(Cl)cc1` [1-(4-Chloro-phenyl)-5-ethyl-2-(3-methyl-pyridin-2-yl)-1H-imidazole-4-carboxylic acid cyclohexylamide]: the Ki in assay [1] is 100 µM; in assay [3], 0.794 µM. In assay [2], this molecule returned a pKi of 5.5.
As for `CCc1c(C(=O)NN2CCCCC2)nc(-c2ncccc2C)n1-c1ccc(Cl)cc1` [1-(4-Chloro-phenyl)-5-ethyl-2-(3-methyl-pyridin-2-yl)-1H-imidazole-4-carboxylic acid piperidin-1-ylamide], the results for the Ki in assay [1] (setting [4]) and in assay [3] (setting [5]) were 100 µM and 0.251 µM, respectively. The negative-log Ki (pKi) in assay [2] stood at 4.8.
The like results for `N=C(N)C1=NN(c2ccc(Cl)cc2)C(c2ccccc2)C1` (stereo not drawn) [1-(4-Chloro-phenyl)-5-phenyl-4,5-dihydro-1H-pyrazole-3-carboxamidine] were, in that order, 100 µM, 0.501 µM and 4.0.
For the molecule `CCc1c(C(=O)NC2CCCCC2)nc(-c2ccc(C)n2C)n1-c1ccccc1` [2-(1,5-Dimethyl-1H-pyrrol-2-yl)-5-ethyl-1-phenyl-1H-imidazole-4-carboxylic acid cyclohexylamide], the results for the Ki in assay [1] (setting [4]) and in assay [3] (setting [5]) were 100 µM and 0.158 µM, respectively. This molecule had a negative logarithm of the Ki (pKi) in assay [2] (setting [6]) of 4.0.
Take `Cc1c(C(=O)NN2CCCCC2)nc(-c2ccc(Cl)cc2Cl)n1-c1ccccn1` [2-(2,4-Dichloro-phenyl)-5-methyl-1-pyridin-2-yl-1H-imidazole-4-carboxylic acid piperidin-1-ylamide]: the Ki is 100 µM in assay [1] (setting [4]) and 0.631 µM in assay [3] (setting [5]). This molecule displayed a negative logarithm of the Ki (pKi) in assay [2] of 4.1.
`CCCCC/C=C\C/C=C\C/C=C\C/C=C\CCCC(=O)OC(CO)CO` [2-AG, Icosa-5,8,11,14-tetraenoic acid 2-hydroxy-1-hydroxymethyl-ethyl ester, reference compound]: the figures for the Ki in assay [1] (setting [4]) and in assay [3] (setting [5]) were 2.51 µM and 3.98 µM, respectively.
In the case of `NC(Cc1ccc(Cl)c(Cl)c1)C(=O)N1CC(c2ccccc2)C(c2ccc(Cl)cc2)=N1` (stereo not drawn) [2-Amino-1-[3-(4-chloro-phenyl)-4-phenyl-4,5-dihydro-pyrazol-1-yl]-3-(3,4-dichloro-phenyl)-propan-1-one], the Ki in assay [1] (setting [4]) is 3.98 µM; in assay [3] (setting [5]), 0.631 µM. For the same molecule, in assay [2], the pKi is given as 4.8.
As for `CC(C)(CO)CN/C(=N\S(=O)(=O)c1ccc(Cl)cc1)N1CC(c2ccccc2)C(c2ccc(Cl)cc2)=N1` (stereo not drawn) [4-Chloro-N-[[3-(4-chloro-phenyl)-4-phenyl-4,5-dihydro-pyrazol-1-yl]-(3-hydroxy-2,2-dimethyl-propylamino)-methylene]-benzenesulfonamide], the values for the Ki in assay [1] (setting [4]) and in assay [3] (setting [5]) were 31.6 µM and 0.794 µM, respectively. The molecule further gave a negative logarithm of the Ki (pKi) in assay [2] of 5.4.
Regarding `CCCCC/C=C\C/C=C\C/C=C\C/C=C\CCCCOC(CO)CO` [Noladineether, reference compound], the Ki in assay [1] (setting [4]) is 3.98 µM; in assay [3] it was 0.251 µM.
On to `Cc1c(NC(=O)N2CCCCC2)nn(-c2ccc(Cl)cc2Cl)c1-c1ccc(Cl)cc1` [Piperidine-1-carboxylic acid [5-(4-chloro-phenyl)-1-(2,4-dichloro-phenyl)-4-methyl-1H-pyrazol-3-yl]-amide], for which the Ki in assay [1] (setting [4]) is 20 µM. This molecule gave a negative-log Ki (pKi) in assay [2] of 4.7.
For `CCc1c(C(=O)NN2CCCCC2)nn(-c2ccc(Cl)cc2Cl)c1-c1ccc(Br)cc1` [SR-147778, 5-(4-Bromo-phenyl)-1-(2,4-dichloro-phenyl)-4-ethyl-1H-pyrazole-3-carboxylic acid piperidin-1-ylamide, reference compound], the Ki in assay [1] (setting [4]) is 3.16 µM; in assay [3] (setting [5]) it was 1.26 µM.
In the case of `O=S(=O)(N=C(NCCF)N1CC(c2ccccc2)C(c2ccc(Cl)cc2)=N1)c1ccc(Cl)cc1` (stereo not drawn) [drawing 45, 4-Chloro-N-[[3-(4-chloro-phenyl)-4-phenyl-4,5-dihydro-pyrazol-1-yl]-(2-fluoro-ethylamino)-methylene]-benzenesulfonamide], the Ki in assay [1] (setting [4]) is 25.1 µM. In assay [2], this molecule showed a negative-log Ki (pKi) of 4.6.
Take `O=S(=O)(N=C(NCCF)N1CC(c2ccccc2)C(c2ccc(Cl)cc2)=N1)c1ccc(Cl)cc1` (stereo not drawn) [drawing 46]: in assay [1] (hamster SUR1 in COS cell membranes), the “Affinity to SUR 1” value amounted to 4.6. Further, the pKi in assay [2] is reported as 5.0.
